Test results taken from patent US20120122840A1, “COMPOUNDS AND THERAPEUTIC USES THEREOF” (Myrexis, Inc., priority 2009, published 2012).
Each block holds one compound with its values, some of them ahead of it.

What was measured:
Type in all cases: cell-based
A549 cells = experiment: Image analysis of chromosome segregation; conditions: 10 μM, 24 hours
Source text: (§1) Image analysis: Cells were fixed and stained with Hoechst dye and anti-(3-tubulin, anti-pericentrin and anti-centromere antibodies. Images were taken on a BD Pathway high content imaging system. For cell cycle analysis, cells were fixed, stained with propidium iodide and analyzed by FACS. For Western blot analysis, cell lysates were run on SDS-polyacrylamide gels and proteins were transferred to PVDF membrane. Membranes were probed with the indicated antibodies.
Cells were stained with Hoechst dye (blue) and anti-tubulin (green), anti-pericentrin (red) and anti-centromere (white) antibodies.

HCT-116 cells = experiment: Cell cycle analysis by FACS (propidium iodide); conditions: 1 μM, 24, 48 or 72 hours
Source text: as §1
Cells were fixed, stained with propidium iodide and analyzed by fluorescence activated cell sorting (FACS) using a FACScan instrument.

p53 pathway = experiment: Western blot of p53 and p21 in HCT-116 cells
Source text: as §1
(§2) Western blot analyses: Cells were lysed in 10 mM Tris-HCl pH 7.5, 1 mM EDTA, 150 mM NaCl, 10% glycerol, protease inhibitor cocktail, phosphatase 1, and phosphatase 2. Protein yields were determined by Bradford assay and equivalent amounts of protein were loaded for each sample.
Antibodies: All antibodies were purchased from Cell Signaling Technology.
Cell lysates were analyzed by Western blot with anti-p53, anti-p21 or anti-β-actin antibodies (see FIG. 4A).
(§3) p53 was previously reported to suppress the expression of survivin. […] Cell lysates were analyzed by Western blot with anti-p53, anti-survivin or anti-β-actin antibodies (see FIG. 4C). […] Induction of p53 preceded the loss of survivin.

p21 mRNA = experiment: qRT-PCR of p21 mRNA in HCT-116 cells; conditions: 1 μM, time course, relative to 7 hour DMSO control
Description: For qRT-PCR: Primer probe sets for p21 and GAPDH were purchased from Applied Biosystems. qRT-PCR was performed using the Quantitect Probe RT-PCR Kit from Qiagen following the standard protocol.
The p21 mRNA levels were normalized to the GAPDH mRNA levels from the same total RNA sample.

survivin = experiment: Western blot of survivin in HCT-116 cells; conditions: increasing concentrations, 48 hours
Description: as §2, §3

p53 = experiment: Western blot with phosphospecific anti-p53 antibodies in HCT-116 cells; conditions: 1 μM, 48 hours
Description: as §2
Phosphorylation of p53 at various sites on the N-terminus results in the stabilization of p53. […] Cell lysates were analyzed by Western blot with anti-GAPDH, anti-p53 or the phosphospecific anti-p53 antibodies.

histone H2AX = experiment: Western blot of H2AX-pS139 in HCT-116 cells; conditions: 1 μM, 7, 24, 36 or 48 hours
Description: as §2
Phosphorylation and stabilization of p53 occurs in response to DNA damage. Phosphorylation of H2AX functions to recruit DNA repair enzymes to sites of DNA damage and serves as a marker for DNA double strand breaks. […] Cell lysates were analyzed by Western blot with anti-H2AX-pS139 (gH2AX) or β-actin antibodies. […] Inhibition of TTK induces the phosphorylation of p53 on serine 15 and H2AX on serine 139.

786-0 = experiment: CellTiter Glo cell viability, 7 days; conditions: Homo sapiens, 168 h, kidney, read-out: 7 day IC50
Description: (§4) The compounds of the present invention were tested against a panel of cancer cells to determine the effect on cell viability. Viability was determined by measuring cellular ATP levels using CellTiter Glo reagent (Promega, Madison, Wis.).
(§5) MATERIALS: • A. Cancer cell lines obtained from ATCC or DSMZ • B. RPMI supplemented with 10% FBS/L-glutamine/NEAA/HEPES/Na-Pyruvate • C. DMEM supplemented with 10% FBS and L-glutamine. • B. Compounds, typically 50 mM stocks diluted in DMSO; • C. Clear, flat, TC-surface bottomed 96-well microplates (Corning #3595) • D. CellTiter-Glo® Luminescent Cell Viability Assay (Promega #G7573)
(§6) METHODS: • 1. Cells were plated at densities of 2000-5000 cells per well in 100 μl volume on a 96-well plate, and were incubated overnight. • 2. Test compound(s) were serially diluted to the desired 250× concentration. • 3. For each concentration of compound to be tested, 0.4 μl of 250× compound was added in triplicate to the cell plates. Plates were then incubated at 37° C. for 7 days. • 4. 100 μL of prepared CellTiter Glo reagent was added to treated cells, and plates were gently mixed for 2 minutes, and equilibrated for 10 minutes at room temperature. • 5. Luminescence was measured and the viability of treated cells relative to DMSO control was calculated.
(§7) Cancer cell lines were treated with TTK inhibitor for 7 days and cell viability was measured using the CellTiter Glo assay (Promega, Madison, Wis.).

BT-474 = experiment: CellTiter Glo cell viability, 7 days; conditions: Homo sapiens, 168 h, breast, read-out: 7 day IC50
Description: as §4, §5, §6, §7

BxPC-3 = experiment: CellTiter Glo cell viability, 7 days; conditions: Homo sapiens, 168 h, pancreas, read-out: 7 day IC50
Description: as §4, §5, §6, §7

Colo-205 = experiment: CellTiter Glo cell viability, 7 days; conditions: Homo sapiens, 168 h, colon, read-out: 7 day IC50
Description: as §4, §5, §6, §7

DMS-114 = experiment: CellTiter Glo cell viability, 7 days; conditions: Homo sapiens, 168 h, lung, read-out: 7 day IC50
Description: as §4, §5, §6, §7

DU-145 = experiment: CellTiter Glo cell viability, 7 days; conditions: Homo sapiens, 168 h, prostate, read-out: 7 day IC50
Description: as §4, §5, §6, §7

DU4475 = experiment: CellTiter Glo cell viability, 7 days; conditions: Homo sapiens, DU-4475, 168 h, breast, read-out: 7 day IC50
Description: as §4, §5, §6, §7

HCC827 = experiment: CellTiter Glo cell viability, 7 days; conditions: Homo sapiens, 168 h, lung, read-out: 7 day IC50
Description: as §4, §5, §6, §7

HCT-15 = experiment: CellTiter Glo cell viability, 7 days; conditions: Homo sapiens, 168 h, colon, read-out: 7 day IC50
Description: as §4, §5, §6, §7

IGR-OV1 = experiment: CellTiter Glo cell viability, 7 days; conditions: Homo sapiens, IGROV-1, 168 h, ovarian, read-out: 7 day IC50
Description: as §4, §5, §6, §7

KARPAS-299 = experiment: CellTiter Glo cell viability, 7 days; conditions: Homo sapiens, 168 h, blood, read-out: 7 day IC50
Description: as §4, §5, §6, §7

MCF-7 = experiment: CellTiter Glo cell viability, 7 days; conditions: Homo sapiens, MCF7, 168 h, breast, read-out: 7 day IC50
Description: as §4, §5, §6, §7

MDA-MB-231 = experiment: CellTiter Glo cell viability, 7 days; conditions: Homo sapiens, 168 h, breast, read-out: 7 day IC50
Description: as §4, §5, §6, §7

MDA-MB-436 = experiment: CellTiter Glo cell viability, 7 days; conditions: Homo sapiens, 168 h, breast, read-out: 7 day IC50
Description: as §4, §5, §6, §7

NCI-N87 = experiment: CellTiter Glo cell viability, 7 days; conditions: Homo sapiens, 168 h, gastric, read-out: 7 day IC50
Description: as §4, §5, §6, §7

OPM-2 = experiment: CellTiter Glo cell viability, 7 days; conditions: Homo sapiens, 168 h, blood, read-out: 7 day IC50
Description: as §4, §5, §6, §7

OVCAR-3 = experiment: CellTiter Glo cell viability, 7 days; conditions: Homo sapiens, 168 h, ovarian, read-out: 7 day IC50
Description: as §4, §5, §6, §7

OVCAR-5 = experiment: CellTiter Glo cell viability, 7 days; conditions: Homo sapiens, 168 h, ovarian, read-out: 7 day IC50
Description: as §4, §5, §6, §7

PANC1 = experiment: CellTiter Glo cell viability, 7 days; conditions: Homo sapiens, PANC-1, 168 h, pancreas, read-out: 7 day IC50
Description: as §4, §5, §6, §7

PC-3 = experiment: CellTiter Glo cell viability, 7 days; conditions: Homo sapiens, 168 h, prostate, read-out: 7 day IC50
Description: as §4, §5, §6, §7

SK-BR-3 = experiment: CellTiter Glo cell viability, 7 days; conditions: Homo sapiens, 168 h, breast, read-out: 7 day IC50
Description: as §4, §5, §6, §7

SW-480 = experiment: CellTiter Glo cell viability, 7 days; conditions: Homo sapiens, SW480, 168 h, colon, read-out: 7 day IC50
Description: as §4, §5, §6, §7

U-87MG = experiment: CellTiter Glo cell viability, 7 days; conditions: Homo sapiens, 168 h, CNS, read-out: 7 day IC50
Description: as §4, §5, §6, §7

ZR-75-1 = experiment: CellTiter Glo cell viability, 7 days; conditions: Homo sapiens, 168 h, breast, read-out: 7 day IC50
Description: as §4, §5, §6, §7

SMILES: Cc1cc(N2CCOCC2)ccc1Nc1nc(NC2CCCCC2)c2nc[nH]c2n1 [Compound A, N6-cyclohexyl-N2-(2-methyl-4-morpholino-phenyl)-9H-purine-2,6-diamine]
chromosome segregation (A549 cells): causes chromosome segregation defects
DNA content (ploidy) (HCT-116 cells): both aneuploidy, as seen in FIG. 3 by a broadening of the 2N and 4N peaks, as well as the formation of tetraploid (8N) cells
time of maximal induction of the p53 pathway (p53 pathway; 1 μM): ≤ 36 h
p53 pathway activation (p53, p21 protein) (p53 pathway; 1 μM, time course): activate the p53 pathway in a time- and dose-dependent manner
p53 protein induction (p53 pathway; increasing concentrations, 48 hours): induced p53 in a dose- and time-dependent manner
p21 mRNA normalized to GAPDH mRNA (p21 mRNA): induced in a time-dependent manner
survivin protein (survivin): decrease in survivin protein
site of p53 phosphorylation (p53): phosphorylated on serine 15
phosphorylation of serine 139 on H2AX (histone H2AX): induced by Compound A in a time-dependent manner

IC50 (786-0): 1200 nM
IC50 (BT-474): > 30000 nM
IC50 (BxPC-3): 120 nM
IC50 (Colo-205): 90 nM
IC50 (DU-145): 370 nM
IC50 (HCC827): 94 nM
IC50 (HCT-15): 280 nM
IC50 (KARPAS-299): 96 nM
IC50 (MCF-7): 61 nM
IC50 (MDA-MB-231): 28000 nM
IC50 (MDA-MB-436): 8700 nM
IC50 (OVCAR-3): 150 nM
IC50 (OVCAR-5): 150 nM
IC50 (PANC1): 3700 nM
IC50 (PC-3): 200 nM
IC50 (SK-BR-3): 56 nM
IC50 (SW-480): 140 nM
IC50 (U-87MG): 670 nM
SMILES: Cc1cc(N2CCOCC2)ccc1Nc1nc(NC2CCCCC2)c2nc[nH]c2n1 [N6-cyclohexyl-N2-(2-methyl-4-morpholino-phenyl)-9H-purine-2,6-diamine]
IC50 (DMS-114): 180 nM
IC50 (DU4475): 72 nM
IC50 (IGR-OV1): 580 nM
IC50 (NCI-N87): 2100 nM
IC50 (OPM-2): 99 nM
IC50 (ZR-75-1): 56 nM
